These results are taken from patent US12534474B2, “Dihydrofuropyridine derivatives as rho-kinase inhibitors” (CHIESI FARMACEUTICI S.P.A., priority 2020, dated 2026).

As usually defined, the Ki is a measure of affinity in units of concentration, obtained from inhibition or displacement.

Holding throughout (assay type): biochemical
One test deals with PKA (Homo sapiens, UniProt P17612). Description: In vitro inhibitory activity assay for PKA, ADP-Glo, reported as selectivity ratio vs ROCK2. As to conditions: Ki for PKA divided by Ki of ROCK2 (Method B). The protocol: In Vitro Inhibitory Activity Assay Description for PKA
The effectiveness of compounds of the present invention to inhibit PKA activity can be determined in a 10 μL assay containing 40 mM Tris pH7.5, 20 mM MgCl2 0.1 mg/mL BSA, 50 μM DTT and 260 μM peptide substrate (kemptide) using an ADP-Glo kit (Promega). Compounds were dissolved in DMSO such that the final concentration of DMSO was 1% in the assay. All reactions/incubations are performed at 25° C. Compound and PKA enzyme (6 μL) were mixed and incubated for 30 min. Reactions were initiated by addition of ATP (4 μL) such that the final concentration of ATP in the assay was 10 μM. After a 30 minute incubation 10 μL of ADP-Glo Reagent was added and after a further 1 hour incubation 20 μL of Kinase Detection Buffer was added and the mixture incubated for a further 45 minutes. The luminescent signal was measured on a luminometer. […] Compounds were tested in dose-response format and the inhibition of kinase activity was calculated at each concentration of compound. To determine the IC50 (concentration of compound required to inhibit 50% of the enzyme activity) data were fit to a plot of % inhibition vs Log10 compound concentration using a sigmoidal fit with a variable slope and fixing the maximum to 100% and the minimum to 0%. To determine the Ki values the Cheng-Prusoff equation was utilized (Ki=IC50/(1+[S]/Km).
In vitro inhibitory activities for PKA were reported as selectivity ratio vs. ROCK2. Selectivity ratio PKA/ROCK2 was calculated by dividing the Ki value for PKA by Ki value of ROCK2 (Method B) and reported into table 1.
Background: ADP-Glo turns the ADP formed in a reaction into a luminescent signal.

In another test the target is ROCK1 (Homo sapiens, UniProt Q13464). Description: In vitro Rho kinase inhibitory activity assay, ADP-Glo, Method B (ATP 200 μM). The note with it: read-out: Method B ROCK 1 (Ki). How it is done:
(§1) In Vitro Inhibitory Activity Assay Description (Method B)
(§2) The effectiveness of compounds of the present invention to inhibit Rho kinase activity can be determined in a 10 μL assay containing 40 mM Tris pH7.5, 20 mM MgCl2 0.1 mg/mL BSA, 50 μM DTT and 2.5 μM peptide substrate (Myelin Basic Protein) using an ADP-Glo kit (Promega). Compounds were dissolved in DMSO such that the final concentration of DMSO was 1% in the assay. All reactions/incubations are performed at 25° C. Compound (2 ul) and either Rho kinase 1 or 2 (4 μL) were mixed and incubated for 30 min. Reactions were initiated by addition of ATP (4 μL) such that the final concentration of ATP in the assay was 200 μM. After a 1 hour incubation 10 μL of ADP-Glo Reagent was added and after a further 45 minute incubation 20 ul of Kinase Detection Buffer was added and the mixture incubated for a further 30 minutes. The luminescent signal was measured on a luminometer. […] Compounds were tested in dose-response format and the inhibition of kinase activity was calculated at each concentration of compound. To determine the IC50 (concentration of compound required to inhibit 50% of the enzyme activity) data were fit to a plot of % inhibition vs Log 10 compound concentration using a sigmoidal fit with a variable slope and fixing the maximum to 100% and the minimum to 0%. To determine the Ki values the Cheng-Prusoff equation was utilized (Ki=IC50/(1+[S]/Km).

The target of another test is ROCK2 (Homo sapiens, UniProt O75116). Described as above. As to conditions: read-out: Method B ROCK 2 (Ki). The protocol:
as §1, §2

ROCK2, sequence (O75116 whole entry): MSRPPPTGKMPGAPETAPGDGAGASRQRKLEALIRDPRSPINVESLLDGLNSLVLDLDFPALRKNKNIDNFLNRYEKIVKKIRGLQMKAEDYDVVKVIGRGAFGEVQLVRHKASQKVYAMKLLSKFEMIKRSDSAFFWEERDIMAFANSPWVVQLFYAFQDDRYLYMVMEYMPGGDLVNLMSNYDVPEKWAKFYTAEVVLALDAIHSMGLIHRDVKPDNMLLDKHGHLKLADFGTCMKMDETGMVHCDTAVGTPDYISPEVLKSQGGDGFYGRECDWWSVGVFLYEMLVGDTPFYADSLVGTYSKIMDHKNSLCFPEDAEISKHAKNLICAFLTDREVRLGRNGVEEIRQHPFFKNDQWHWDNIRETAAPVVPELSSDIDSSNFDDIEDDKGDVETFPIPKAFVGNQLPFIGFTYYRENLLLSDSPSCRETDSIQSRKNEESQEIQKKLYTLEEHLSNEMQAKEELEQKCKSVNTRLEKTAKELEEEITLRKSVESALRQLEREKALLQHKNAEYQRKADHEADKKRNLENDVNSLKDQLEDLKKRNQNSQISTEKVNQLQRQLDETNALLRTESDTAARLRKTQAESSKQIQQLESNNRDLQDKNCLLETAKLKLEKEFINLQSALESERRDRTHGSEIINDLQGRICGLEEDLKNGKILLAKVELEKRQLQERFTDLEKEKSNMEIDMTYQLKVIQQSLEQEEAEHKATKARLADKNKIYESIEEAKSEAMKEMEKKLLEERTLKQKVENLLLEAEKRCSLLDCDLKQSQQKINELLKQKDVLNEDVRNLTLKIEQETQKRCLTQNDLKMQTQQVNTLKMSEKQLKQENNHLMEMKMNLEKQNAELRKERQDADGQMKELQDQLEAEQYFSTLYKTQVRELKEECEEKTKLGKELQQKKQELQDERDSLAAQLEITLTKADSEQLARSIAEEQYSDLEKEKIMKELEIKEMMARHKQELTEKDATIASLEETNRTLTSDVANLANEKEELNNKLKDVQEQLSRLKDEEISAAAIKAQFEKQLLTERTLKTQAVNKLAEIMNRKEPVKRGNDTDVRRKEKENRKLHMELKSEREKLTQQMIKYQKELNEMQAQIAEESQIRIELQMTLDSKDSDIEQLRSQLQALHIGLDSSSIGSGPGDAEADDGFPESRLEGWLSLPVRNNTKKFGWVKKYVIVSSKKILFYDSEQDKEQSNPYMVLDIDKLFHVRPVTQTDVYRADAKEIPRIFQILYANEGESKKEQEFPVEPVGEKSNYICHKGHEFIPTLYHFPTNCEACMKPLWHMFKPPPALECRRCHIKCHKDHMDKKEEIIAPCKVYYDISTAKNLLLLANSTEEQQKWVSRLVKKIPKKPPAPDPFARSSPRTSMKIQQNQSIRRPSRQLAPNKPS
ROCK1, sequence (Q13464 whole entry): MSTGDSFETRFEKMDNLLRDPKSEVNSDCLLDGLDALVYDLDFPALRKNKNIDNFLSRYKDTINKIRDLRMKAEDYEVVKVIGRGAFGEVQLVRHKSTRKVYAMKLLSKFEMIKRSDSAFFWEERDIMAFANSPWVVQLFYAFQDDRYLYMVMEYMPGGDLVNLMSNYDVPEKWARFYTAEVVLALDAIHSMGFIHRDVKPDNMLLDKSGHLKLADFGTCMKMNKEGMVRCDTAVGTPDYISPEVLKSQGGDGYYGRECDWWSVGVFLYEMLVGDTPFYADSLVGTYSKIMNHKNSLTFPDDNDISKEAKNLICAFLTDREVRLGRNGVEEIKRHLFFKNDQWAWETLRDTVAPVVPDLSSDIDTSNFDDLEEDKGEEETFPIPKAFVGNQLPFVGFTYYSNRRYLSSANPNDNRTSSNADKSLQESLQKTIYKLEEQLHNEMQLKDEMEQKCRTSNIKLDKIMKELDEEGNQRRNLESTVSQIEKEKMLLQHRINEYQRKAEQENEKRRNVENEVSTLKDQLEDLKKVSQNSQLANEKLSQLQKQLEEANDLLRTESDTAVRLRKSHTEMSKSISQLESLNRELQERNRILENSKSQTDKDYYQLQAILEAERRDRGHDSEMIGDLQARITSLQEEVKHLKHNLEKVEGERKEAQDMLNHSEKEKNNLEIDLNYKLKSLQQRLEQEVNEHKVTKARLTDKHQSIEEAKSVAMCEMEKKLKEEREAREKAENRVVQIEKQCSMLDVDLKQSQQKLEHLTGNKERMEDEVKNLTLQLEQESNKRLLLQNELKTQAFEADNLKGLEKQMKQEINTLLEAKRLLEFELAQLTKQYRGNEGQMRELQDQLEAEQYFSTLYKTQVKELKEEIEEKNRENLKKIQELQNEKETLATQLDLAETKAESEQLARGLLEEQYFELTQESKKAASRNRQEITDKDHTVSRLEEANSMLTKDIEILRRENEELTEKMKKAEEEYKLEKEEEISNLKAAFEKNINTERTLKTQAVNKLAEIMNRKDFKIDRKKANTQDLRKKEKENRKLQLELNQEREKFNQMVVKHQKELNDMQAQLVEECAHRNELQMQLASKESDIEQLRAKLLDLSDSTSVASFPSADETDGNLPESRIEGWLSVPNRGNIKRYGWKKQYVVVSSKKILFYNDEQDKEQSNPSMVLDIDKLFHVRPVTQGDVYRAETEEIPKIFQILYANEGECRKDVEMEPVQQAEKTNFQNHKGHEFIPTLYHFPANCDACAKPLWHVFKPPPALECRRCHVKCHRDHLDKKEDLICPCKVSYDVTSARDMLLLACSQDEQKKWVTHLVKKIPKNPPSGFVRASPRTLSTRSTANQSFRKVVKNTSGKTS

Turning to `O=C(NC1CC2CN(C3COC3)CC2C1)c1cccc(CNc2ncc(-c3ccncc3)c3c2CCO3)c1` (single isomer, unassigned) [Example 43a, N-(2-(oxetan-3-yl)octahydrocyclopenta[c]pyrrol-5-yl)-3-(((7-(pyridin-4-yl)-2,3-dihydrofuro[3,2-c]pyridin-4-yl)amino)methyl)benzamide], on PKA, the “Ratio (PKA/ROCK2)” value was “*** (ratio≥10)”. In addition, the Ki on ROCK1 and on ROCK2 was ≤ 3 nM in each case.

Consider `O=C(Nc1ccncc1)c1cccc(CNc2ncc(-c3ccncc3)c3c2CCO3)c1` [Example 11, N-(pyridin-4-yl)-3-(((7-(pyridin-4-yl)-2,3-dihydrofuro[3,2-c]pyridin-4-yl)amino)methyl)benzamide], for which the “Ratio (PKA/ROCK2)” value on PKA is on record as “*** (ratio≥10)”. Also, the Ki at ROCK1 and at ROCK2 was ≤ 3 nM in each case.

For `CC(C)(C)N1CC(CNC(=O)c2cccc(CNc3ncc(-c4ccncc4)c4c3CCO4)c2)CC1=O` (centres unmarked) [Example 15, N-((1-(tert-butyl)-5-oxopyrrolidin-3-yl)methyl)-3-(((7-(pyridin-4-yl)-2,3-dihydrofuro[3,2-c]pyridin-4-yl)amino)methyl)benzamide], the “Ratio (PKA/ROCK2)” value on PKA is given as “*** (ratio≥10)”. Moreover, the Ki at ROCK1 and at ROCK2 was ≤ 3 nM each time.

For the molecule `O=C(NCc1ccon1)c1cccc(CNc2ncc(-c3ccncc3)c3c2CCO3)c1` [Example 6, N-(isoxazol-3-ylmethyl)-3-(((7-(pyridin-4-yl)-2,3-dihydrofuro[3,2-c]pyridin-4-yl)amino)methyl)benzamide], the “Ratio (PKA/ROCK2)” value on PKA is on record as “*** (ratio≥10)”. Moreover, the figures for the Ki at ROCK1 and at ROCK2 were 3 to 30 nM and ≤ 3 nM, respectively.

With `CNC(=O)c1cccc(CNc2ncc(-c3ccncc3F)c3c2CCO3)c1` [Example 45, 3-(((7-(3-Fluoropyridin-4-yl)-2,3-dihydrofuro[3,2-c]pyridin-4-yl)amino)methyl)-N-methylbenzamide], the Ki on ROCK1 and on ROCK2 was 3 to 30 nM throughout.

On to `CN1CCOC(CNC(=O)c2cccc(CNc3ncc(-c4ccncc4)c4c3CCO4)c2)C1` (centres unmarked) [Example 10, N-((4-methylmorpholin-2-yl)methyl)-3-(((7-(pyridin-4-yl)-2,3-dihydrofuro[3,2-c]pyridin-4-yl)amino)methyl)benzamide], for which the “Ratio (PKA/ROCK2)” value on PKA is listed as “*** (ratio≥10)”. The Ki at ROCK1 and on ROCK2 was ≤ 3 nM each time.

Consider `O=C(NCC1CC1)c1cccc(CNc2ncc(-c3ccncc3)c3c2CCO3)c1` [Example 12, N-(cyclopropylmethyl)-3-(((7-(pyridin-4-yl)-2,3-dihydrofuro[3,2-c]pyridin-4-yl)amino)methyl)benzamide], for which the “Ratio (PKA/ROCK2)” value on PKA is recorded as “** (5≤ratio<10)”. Also, the Ki at ROCK1 was ≤ 3 nM; at ROCK2, 3 to 30 nM.

On to `O=C(NCCCF)c1cccc(CNc2ncc(-c3ccncc3)c3c2CCO3)c1` [Example 4, N-(3-fluoropropyl)-3-(((7-(pyridin-4-yl)-2,3-dihydrofuro[3,2-c]pyridin-4-yl)amino)methyl)benzamide], for which the “Ratio (PKA/ROCK2)” value at PKA was “*** (ratio≥10)”. For the same molecule, the Ki at ROCK1 and on ROCK2 was 3 to 30 nM in each case.

Take `O=C(NCc1cncnc1)c1cccc(CNc2ncc(-c3ccncc3)c3c2CCO3)c1` [Example 5, 3-(((7-(pyridin-4-yl)-2,3-dihydrofuro[3,2-c]pyridin-4-yl)amino)methyl)-N-(pyrimidin-5-ylmethyl)benzamide]: on PKA, the “Ratio (PKA/ROCK2)” value was “*** (ratio≥10)”. The Ki on ROCK1 and at ROCK2 was 3 to 30 nM in each case.

Turning to `CN(C)CCOc1ccc(NC(=O)c2cccc(CNc3ncc(-c4ccncc4)c4c3CCO4)c2)nc1` [Example 56, N-(5-(2-(dimethylamino)ethoxy)pyridin-2-yl)-3-(((7-(pyridin-4-yl)-2,3-dihydrofuro[3,2-c]pyridin-4-yl)amino)methyl)benzamide], at PKA, the “Ratio (PKA/ROCK2)” value is on record as “*** (ratio≥10)”. The Ki at ROCK1 and at ROCK2 was ≤ 3 nM each time.
